Here are results for one compound from US20090197819A1, “Compositions for improving and repairing skin” (priority 2007, published 2009).

One test deals with skin. The test is described as follows: Preliminary application of ribose to skin without penetrant. It counts as in vivo. The following applies: topical, no penetrant. An excerpt:
The skin is a barrier. Preliminary effects to determine the effect on improving skin by the application of ribose were unsuccessful, leading the Applicants to the realization that ribose may not have penetrated to the basal cells and dermis. To get penetration it is advantageous to provide a penetrant to increase the concentration of active ingredient at the dermis and epidermis. A preferred penetrant is ethanol, which will be incorporated into the composition at a concentration of 0.1 to 15%, most preferably 10% weight to volume. The active ingredient may be at a concentration of from 0.5 to 10%, preferably 1%, weight to volume.

The test system of another test is lymphocytes. The note with it: previously shown by Applicants; cited from earlier work.
For another test, the system named is skeletal muscle. The following applies: oral administration; cited from earlier work.
Another test concerns Fibroblast cell cultures. The test is described as follows: Recovery of ATP in cultured fibroblasts after hypoxic stress. It is filed as cell-based. The note with it: fibroblasts at about 80% confluence, six hours hypoxic atmosphere, fresh medium, inspected at 12, 24 and 48 hours; first experiment. The procedure:
Based on this information, Applicants believe that the same effect might be shown in cell culture with skin cells. The first skin cell be tested in vitro was the fibroblast, the culture of which is well known. The Coriell Institute for medical research publishes a web site with detailed instructions, the teachings of which are incorporated by reference. (Http:/locus.umdnj.edu/cer/faq/fibro.html.) Fibroblast cell cultures were tested to determine an optimal level of ribose as compared to glucose control.
To determine a protective effect of ribose, test and control plates were grown to about 80% confluence and subjected to a simulated environmental stress, six hours under an hypoxic atmosphere. Following exposure, the medium was aspirated off the culture and fresh medium applied. Cultures were inspected at 12, 24 and 48 hours to determine recovery of ATP to pre-hypoxia levels.

`O=C[C@H](O)[C@H](O)[C@H](O)CO` [D-ribose]: the “effect on improving skin by the application of ribose” value with skin is “unsuccessful”. Besides, the “growth of lymphocytes in cell culture” value with lymphocytes was “stimulates the growth”. The “ATP levels in skeletal muscle” value in the test with skeletal muscle was “raises ATP levels”. Besides, in the test with Fibroblast cell cultures, the “recovery of ATP to pre-hypoxia levels (of base ATP levels)” value is 19%.
